In patent US10280171B2, “Heterocyclic inhibitors of PTPN11” (priority 2016, dated 2019):
Counter-ions that a name gives are not always drawn. Like-named read-outs stand apart in the source and are kept apart here.

How the values were obtained:
[1] = biological target: PTPN11-E76K mutant enzyme (Homo sapiens (Human), UniProt Q06124, E76K); assay: PTPN11 Enzymatic Assay (DiFMUP phosphatase activity); type: biochemical; settings: DiFMUP 50 μM, 30 min preincubation
Protocol: Reaction was initiated by addition of DiFMUP (50 μM) at room temperature in 384-well black plate with a final reaction volume of 20 uL in assay buffer. […] Dose-response curves were analyzed using IC50 regression curve fitting (GeneData Screener). Curves were normalized to a high controls without inhibitor, and low controls without enzyme.

[2] = tested on: Phospho-ERK levels in KYSE-520 cells; assay: pERK AlphaScreen Protocol; type: cell-based; settings: Homo sapiens, KYSE-520, 2 h, read-out: PERK Avg IC50
Protocol: KYSE-520 cells (10 k cells/well) were grown in 384-well plate in 20 uL of medium (RPMI-1640, without phenol red, containing 10% FBS) at 37° C. with 5% CO2 overnight. DMSO (control) or increasing concentrations of compounds were diluted in medium, added to the 384-well plate (5 uL/well, final DMSO concentration of 1%), and cells were then incubated with compounds for 2 hr. Phospho-ERK levels were measured using phospho-ERK1/2 AlphaScreen SureFire (PerkinElmer, TGRESB10K) following manufacturer's recommendations. Dose-response curves were analyzed using IC50 regression curve fitting (GeneData Screener). Curves were normalized to a high control without inhibitor (DMSO only), and low control (1 μM selumetinib).

[3] = full length PTPN11-E76K mutant enzyme 250 pM, read-out: PTPN11-E76K Avg IC50
[4] = KYSE-520 cells, 2 hr compound incubation, phospho-ERK1/2 AlphaScreen SureFire

Sequence of PTPN11-E76K mutant enzyme (Q06124 whole entry E76K): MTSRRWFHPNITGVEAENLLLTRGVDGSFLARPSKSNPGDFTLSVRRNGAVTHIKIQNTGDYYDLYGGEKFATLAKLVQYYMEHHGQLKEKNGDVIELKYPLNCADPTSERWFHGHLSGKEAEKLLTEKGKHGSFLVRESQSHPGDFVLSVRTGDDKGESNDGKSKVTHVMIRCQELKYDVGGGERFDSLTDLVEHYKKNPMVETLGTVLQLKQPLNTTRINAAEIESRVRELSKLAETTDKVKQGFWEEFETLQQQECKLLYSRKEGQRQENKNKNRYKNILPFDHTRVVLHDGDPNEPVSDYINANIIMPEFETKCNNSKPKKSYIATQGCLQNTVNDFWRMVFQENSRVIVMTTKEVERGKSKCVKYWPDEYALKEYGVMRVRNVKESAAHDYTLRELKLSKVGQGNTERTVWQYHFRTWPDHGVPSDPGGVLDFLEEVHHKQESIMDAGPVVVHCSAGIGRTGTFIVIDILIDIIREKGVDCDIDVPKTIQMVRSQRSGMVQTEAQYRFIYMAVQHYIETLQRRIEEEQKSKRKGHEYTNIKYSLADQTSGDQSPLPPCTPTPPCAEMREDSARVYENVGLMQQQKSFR

| Compound | IC50 [1, 3] | IC50 [2, 4] | IC50 [2] | IC50 ([1]; PTPN11-E76K Avg IC50, full length PTPN11-E76K mutant enzyme 250 pM) |
| --- | --- | --- | --- | --- |
| CC1(N)CCN(c2cnc3c(-c4cn[nH]c4C(F)(F)F)n[nH]c3n2)CC1 [Example 101, 4-Methyl-1-(3-(5-(trifluoromethyl)-1H-pyrazol-4-yl)-1H-pyrazolo[3,4-b]pyrazin-6-yl)-piperidin-4-amine] | 1890 nM | 638 nM |  |  |
| N[C@@H]1CCCC12CCN(c1cnc3c(-c4cc(Cl)cc(Cl)c4)n[nH]c3n1)CC2 [Example 45, (R)-8-(3-(3,5-dichloro-phenyl)-1H-pyrazolo[3,4-b]-pyrazin-6-yl)-8-aza-spiro[4.5]decan-1-amine] | 355 nM | 1420 nM |  |  |
| Nc1cccc(-c2n[nH]c3nc(N4CCC5(CCC[C@H]5N)CC4)cnc23)c1Cl [Example 131, (1R)-8-[3-(3-amino-2-chlorophenyl)-1H-pyrazolo[3,4-b]-pyrazin-6-yl]-8-aza-spiro[4.5]decan-1-amine] | 84 nM | 35 nM |  |  |
| N[C@@H]1CCCC12CCN(c1cnc3c(-c4ccc(F)c(Cl)c4)n[nH]c3n1)CC2 [Example 47, (R)-8-(3-(3-chloro-4-fluorophenyl)-1H-pyrazolo[3,4-b]-pyrazin-6-yl)-8-aza-spiro[4.5]decan-1-amine] | 493 nM | 343 nM |  |  |
| CC1(N)CCN(c2cnc3c(-c4ccccc4Cl)n[nH]c3n2)CC1 [Example 20, 1-(3-(2-Chlorophenyl)-1H-pyrazolo[3,4-b]pyrazin-6-yl)-4-methylpiperidin-4-amine] | 326 nM | 158 nM |  |  |
| N[C@@H]1COCC12CCN(c1cnc3c(-c4cccnc4Cl)n[nH]c3n1)CC2 [Example 41, (S)-8-(3-(2-chloro-pyridin-3-yl)-1H-pyrazolo[3,4-b]-pyrazin-6-yl)-2-oxa-8-azaspiro[4.5]-decan-4-amine trifluoroacetate] | 966 nM |  | 394 nM |  |
| NC1(CO)CCN(c2cnc3c(-c4cccc(Cl)c4Cl)n[nH]c3n2)CC1 [Example 57, (4-Amino-1-(3-(2,3-dichlorophenyl)-1H-pyrazolo[3,4-b]pyrazin-6-yl)piperidin-4-yl)-methanol] | 104 nM | 53 nM |  |  |
| NC1(CO)CCN(c2cnc3c(-c4c(F)cccc4Cl)n[nH]c3n2)CC1 [Example 121, (4-Amino-1-(3-(2-chloro-6-fluorophenyl)-1H-pyrazolo[3,4-b]pyrazin-6-yl)-piperidin-4-yl)methanol] | 1080 nM | 1650 nM |  |  |
| CC1(N)CCN(c2cnc3c(-c4cccc(C(F)(F)F)c4)n[nH]c3n2)CC1 [Example 21, 4-Methyl-1-(3-(3-(trifluoromethyl)phenyl)-1H-pyrazolo[3,4-b]pyrazin-6-yl)piperidin-4-amine] | 956 nM | 620 nM |  |  |
| CCC1(N)CCN(c2cnc3c(-c4ccnc(N)c4Cl)n[nH]c3n2)CC1 [Example 135, 4-[6-(4-amino-4-ethylpiperidin-1-yl)-1H-pyrazolo[3,4-b]-pyrazin-3-yl]-3-chloropyridin-2-amine] | 529 nM | 122 nM |  |  |
| NC1(CO)CCN(c2cnc3c(-c4ccccc4Cl)n[nH]c3n2)CC1 [Example 61, (4-amino-1-(3-(2-chlorophenyl)-1H-pyrazolo[3,4-b]-pyrazin-6-yl)-piperidin-4-yl)-methanol] | 401 nM | 221 nM |  |  |
| CC1(N)CCN(c2cnc3c(-c4cccnc4Cl)n[nH]c3n2)CC1 [Example 23, 1-(3-(2-chloro-pyridin-3-yl)-1H-pyrazolo[3,4-b]-pyrazin-6-yl)-4-methyl-piperidin-4-amine] | 1820 nM | 428 nM |  |  |
| N[C@@H]1CCCC12CCN(c1cnc3c(-c4cccc(Cl)c4)n[nH]c3n1)CC2 [Example 44, (R)-8-(3-(3-chloro-phenyl)-1H-pyrazolo[3,4-b]-pyrazin-6-yl)-8-aza-spiro[4.5]-decan-1-amine] | 429 nM | 304 nM |  |  |
| CC1(CN)CCN(c2cnc3c(-c4ccc(F)c(Cl)c4)n[nH]c3n2)CC1 [Example 14, (1-(3-(3-Chloro-4-fluorophenyl)-1H-pyrazolo[3,4-b]-pyrazin-6-yl)-4-methylpiperidin-4-yl) methanamine] | 521 nM | 569 nM |  |  |
| CC1(CN)CCN(c2cnc3c(-c4cccc(C(F)(F)F)c4)n[nH]c3n2)CC1 [Example 22, (4-methyl-1-(3-(3-(trifluoromethyl)-phenyl)-1H-pyrazolo[3,4-b]pyrazin-6-yl)-piperidin-4-yl)-methanamine] | 1750 nM | 976 nM |  |  |
| N[C@@H]1CCCC12CCN(c1cnc3c(-c4cccc(C(F)(F)F)c4)n[nH]c3n1)CC2 [Example 48, (R)-8-(3-(3-(trifluoromethyl)-phenyl)-1H-pyrazolo[3,4-b]pyrazin-6-yl)-8-azaspiro[4.5]decan-1-amine] | 1760 nM | 586 nM |  |  |
| NCC1(O)CCN(c2cnc3c(-c4ccnc(N)c4Cl)n[nH]c3n2)CC1 [Example 114, 1-(3-(2-Amino-3-chloropyridin-4-yl)-1H-pyrazolo[3,4-b]pyrazin-6-yl)-4-(aminomethyl)piperidin-4-ol] | 779 nM | 2490 nM |  |  |
| Nc1cc(-c2n[nH]c3nc(N4CCC5(CC4)COC[C@H]5N)cnc23)c(Cl)cn1 [Example 137, (4S)-8-[3-(2-amino-5-chloropyridin-4-yl)-1H-pyrazolo[3,4-b]pyrazin-6-yl]-2-oxa-8-azaspiro[4.5]-decan-4-amine] | 504 nM | 1030 nM |  |  |
| CC1(CN)CCN(c2cnc3c(-c4ccc(Cl)cc4)n[nH]c3n2)CC1 [Example 16] | 169 nM | 309 nM |  |  |
| NC1C(F)(F)CCC12CCN(c1cnc3c(-c4cccc(Cl)c4Cl)n[nH]c3n1)CC2 (single isomer, unassigned; isomer a) [Example 65A, 8-(3-(2,3-Dichlorophenyl)-1H-pyrazolo[3,4-b]pyrazin-6-yl)-2,2-difluoro-8-azaspiro[4.5]decan-1-amine, isomer A] |  | 93 nM |  | 235 nM |
| Cc1ncccc1-c1n[nH]c2nc(N3CCC4(CCC[C@H]4N)CC3)cnc12 [Example 55, (R)-8-(3-(2-methyl-pyridin-3-yl)-1H-pyrazolo[3,4-b]-pyrazin-6-yl)-8-azaspiro[4.5]decan-I -amine] | 1140 nM | 712 nM |  |  |
| Nc1nccc(-c2n[nH]c3nc(N4CCC(N)(CO)CC4)cnc23)c1Cl [Example 119, (4-Amino-1-(3-(2-amino-3-chloropyridin-4-yl)-1H-pyrazolo[3,4-b]pyrazin-6-yl)-piperidin-4-yl)methanol] | 422 nM | 1730 nM |  |  |
| CC1(N)CCN(c2cnc3c(-c4ccc(Cl)c(Cl)c4)n[nH]c3n2)CC1 [Example 18, 1-(3-(3,4-dichloro-phenyl)-1H-pyrazolo[3,4-b]-pyrazin-6-yl)-4-methylpiperidin-4-amine] | 141 nM | 667 nM |  |  |
| N[C@@H]1CCCC12CCN(c1cnc3c(-c4cccc(Cl)c4F)n[nH]c3n1)CC2 [Example 49, (R)-8-(3-(3-chloro-2-fluorophenyl)-1H-pyrazolo[3,4-b]-pyrazin-6-yl)-8-aza-spiro[4.5]decan-1-amine] | 143 nM | 62 nM |  |  |
| Nc1cc(-c2n[nH]c3nc(N4CCC5(CCC[C@H]5N)CC4)cnc23)c(Cl)cn1 [Example 125, (R)-8-(3-(2-amino-5-chloropyridin-4-yl)-1H-pyrazolo[3,4-b]pyrazin-6-yl)-8-azaspiro[4.5]decan-1-amine] | 509 nM | 429 nM |  |  |
